Reference: patent US12447171B2 (CELGENE QUANTICEL RESEARCH, INC., priority 2019, dated 2025)

Tested on: stearoyl-CoA desaturase (SCD)
Assay: SCD expression (RNAseq, real-time PCR) in MV4-11 cells
Type: cell-based
Procedure: After treatment, cells were recovered, washed once in PBS, and flash frozen as cell pellets. Cell pellets were sent to Canopy Biosciences for RNA extraction and library preparation and sequencing. RNA was extracted using the Qiagen RNeasy Mini Kit according to manufacturer's instructions. A modified protocol was used to preserve miRNA species. Total RNA Seq libraries were prepared using 200 ng of total RNA and the NEBNext Ultra II Directional Library prep kit. rRNA depletion was performed using an RNase-H based method (New England Biolabs, Ipswich, MA). MCL1 RNA levels in other cell lines were quantified by RNASeq using standard methods.
Libraries were multiplexed and sequenced using Illumina HiSeq. All gene counts were then imported into the R/Bioconductor package EdgeR and TMM normalization size factors were calculated to adjust for samples for differences in library size. Ribosomal genes and genes not expressed in the smallest group size minus one samples greater than one count-per-million were excluded from further analysis. Differential expression analysis was then performed to analyze for differences between conditions and the results were filtered for only those genes with Benjamini-Hochberg false-discovery rate adjusted p-values less than or equal to 0.05. Global perturbations in known Gene Ontology (GO) terms and KEGG pathways were detected using the R/Bioconductor package GAGE to test for changes in expression of the reported log 2 fold-changes reported by Limma in each term versus the background log 2 fold-changes of all genes found outside the respective term. […]
At this time, cells were recovered and RNA was extracted using Qiagen RNeasy kit according to manufacturer's instructions. […] Validated Taqman probes and Taqman Fast Advanced Master Mix was used with Viia 7 Real-Time PCR System (Invitrogen/ThermoFisher Scientific, Waltham, MA) to quantify transcripts of ATF3, SCD, and 18S mRNA.

For `Nc1ncn([C@@H]2O[C@H](CO)[C@@H](O)[C@H]2O)c(=O)n1` [5-azacytidine, 4-amino-1-B-D-ribofuranosyl-1,3,5-triazin-2(1H)-one], the “SCD expression (real-time PCR)” value (MV4-11, 3 μM 5-azacytidine) was “decreased rapidly within 24 hours”, the “SCD expression (real-time PCR)” value (MV4-11, low concentrations of 5-azacytidine, 24 hours) was “not affected” and the SCD expression decrease (RNAseq, MV4-11, 1 μM, 48 hours) was 2.5 fold.
